Measured values taken from patent EP3064205A1, “Therapeutic use of isomeric forms of 2-(4-chlorophenyl)quinolin-4-yl)(piperidin-2-yl)methanol” (Glionova AB, priority 2015, dated 2016).

Columns and labels:
Panc-1 cells = assay: APH cell viability assay, 3D culture; assay type: cell-based, human
Text: The following well-characterized human pancreatic ductal adenocarcinoma cell lines (ATCC) were used: HPAF II, BxPC-3, MIA-PaCa2 and Panc-1. These cell lines were generated from patient-derived tumors and are widely used model system to study pancreatic cancer (HPAF II: Kim YW, et al. Pancreas 4: 353-362, 1989; BxPC-3: Tan MH, et al. Cancer Invest. 4: 15-23, 1986; MIA-PaCa2: Yunis AA, et al. Int. J. Cancer 19: 128-135, 1977; Pacn-1: Lieber M, et al. Int. J. Cancer 15: 741-747, 1975).
(§1) Panc-1, HPAF II, KPC pancreatic adenocarcinoma cell lines were trypsin-treated and counted using the Casy Cell Counter according to the manufacturer's recommendations (GmbH). Subsequently, they were seeded onto round bottom non-tissue culture treated 96 well-plates (Falcon, BD NJ, USA) at a concentration of 2500 cells/well in 100 µl DMEM-F12 or phenol red-free DMEM-F12 medium, containing 10% FCS and supplemented with 20% methyl cellulose stock solution. For preparation of methylcellulose stock solution, 6 grams of methylcellulose powder (M0512, Sigma-Aldrich) was autoclaved in a 500 ml flask containing a magnetic stirrer (the methylcellulose powder is resistant to this procedure). The autoclaved methylcellulose was dissolved in preheated 250 ml basal medium (60°C) for 20 min (using the magnetic stirrer). Thereafter, 250 ml medium (room temperature) containing double amount of FCS (20%) was added to a final volume of 500 ml and the whole solution mixed overnight at 4°C. The final stock solution was aliquoted and cleared by centrifugation (5000g, 2 h, room temperature). Only the clear highly viscous supernatant was used for the spheroid assay (about 90-95% of the stock solution). For spheroid generation, 20% of the stock solution and 80% culture medium corresponding to final 0.24% methylcellulose was used. Spheroids were grown under standard culture conditions (5% CO2, at 37°C).
For 2D culture, cells were seeded on flat bottom 96 well plates (Costar) at a concentration of 2500 cells/well in 100 µl phenol red-free RPMI-F12 medium containing 10% FCS. For 3D culture, cells were seeded according to the description for spheroid preparation in phenol-free medium. […] The viability rate was calculated as a percentage of the untreated cells. All data were expressed as the mean ± SD of at least 8 replicates. To confirm the reliability of the APH assay on 2D culture, cell viability was measured using CellTiter-Glo assay (Promega).
The APH assay, which measures the activity of acidic phosphatase in the cells, was optimized for 3D cultures as follows. […] Absorbance at 405nm was measured within 10 minutes using a FluoStar OPTIMA plate reader (BMG Labtech). Viability rate was calculated as per cent of CTR untreated cells. All data are expressed as the mean ± SD of at least 8 replicates.

KPC cells = assay: ATP viability assay (CellTiter-Glo), 3D culture, automatic drug screen; assay type: cell-based, mouse; conditions: 72h
Experimental: as §1, with “Only the clear highly viscous supernatant was used for the spheroid assay (about 90-95% of the stock solution). For spheroid generation, 20% of the stock solution and 80% culture medium corresponding to final 0.24% methylcellulose was used. Spheroids were grown under standard culture conditions (5% CO2, at 37°C).” left out
In order to confirm the results presented in figure 1, S1 was further tested in 2 different cell lines in 3D culture format, using an automatic drug screening assay. The effect of Vacquinol-1 RS (S1) on cell viability was measured after 72h using the CellTiter-Glo assay (Promega) adapted for 3D culture.

SMILES: O[C@H](c1cc(-c2ccc(Cl)cc2)nc2ccccc12)[C@@H]1CCCCN1 [S1, (R)-(2-(4-chlorophenyl)quinolin-4-yl)((S)-piperidin-2-yl)methanol]
- vacuole formation (Panc-1 cells; Panc-1, 30 µM (data not shown)): vacuoles were formed
- effect on cell viability (Panc-1 cells; Panc-1, 3D culture, 30 µM, 24h): did not affect cells
- decrease in cell viability (Panc-1 cells; Panc-1, 3D culture, 30 µM, 48h): 55%
- decrease in cell viability (Panc-1 cells; Panc-1, 3D culture, 30 µM, 72h): 64%
- reduction in viability (KPC cells; 10 µM): ~50%
- viability compared to control (KPC cells; 30-15 µM): complete loss of viability
